Values of other authors in US20250334554A1, “ANALYTICAL METHOD FOR QUANTIFYING SUCRALOSE-6-ACETATE CONTENT” (Avazyme, Inc., priority 2024, published 2025).
Peptide text beside a SMILES is read from it.

What was measured:
[1] = test system: humans; settings: 2023, Riboli et al.
[2] = Schiffman et al. 2023

| SMILES | IARC carcinogenicity classification [1] | consumption level at which may be genotoxic [2] |
| --- | --- | --- |
| COC(=O)[C@H](Cc1ccccc1)NC(=O)[C@@H](N)CC(=O)O [aspartame] (H-Asp-Phe-OMe) | possibly carcinogenic to humans (Group 2B) | – |
| CC(=O)OC[C@H]1O[C@H](O[C@]2(CCl)O[C@H](CCl)[C@@H](O)[C@@H]2O)[C@H](O)[C@@H](O)[C@H]1Cl [sucralose-6-acetate] | – | 0.15 µg/day |
